Assay results from publication PMC4501319, “Discovery of Selective Small-Molecule Activators of a Bacterial Glycoside Hydrolase” (Angewandte Chemie (International Ed. in English), 2014).

Assays:
BtGH84 [1] = molecular target: T1, BtGH84 (Bacteroides thetaiotaomicron, UniProt Q89ZI2); assay: Isothermal titration calorimetry (ITC); assay type: binding; conditions: 25°C
T1 construct: made in house
Method: (§1) AC50 measurements of fragment activators were performed using a fluorescent kinetic assay. Assays were carried out in a 96 well plate (Black Nunc F96 MicroWell Plates) at 25°C in a total volume of 100 μl per well, buffer (50 mM MES pH 6.5, 200 mM NaCl, 0.01% Tween-20, 1% DMSO) with 500 μM 4-methylumbelliferyl-β-D-GlcNAc (4MU-GlcNAc), as substrate and 50 nM BtGH84. Reactions were initiated by addition of 10 μl of substrate, to a final concentration of 500 μM, followed by 5 s of shaking. Fluorescent 4-methylumbelliferyl release was recorded continuously at 355 nm excitation and 460 nm emission for 20 s using a BMG PolarStar Optima plate reader. Rates were calculated using Sigmaplot as the slope of the curve of the collected data. Corrections were made to the detected gradients to adjust for the inner filter effect of 4MU-GlcNAc and convert the gradients into units of μmol min-1 according to a standard curve of 4MU. The initial slopes were fitted to four-parameter sigmoidal dose response curves using SigmaPlot and the AC50 values extracted. […]
Apparent KM and Vmax values were calculated from a Michalis-Menten curve fit to 8-10 point substrate titrations at a constant concentration of the activator. […]

BtGH84 [2] = molecular target: T1, BtGH84; assay: 4MU-GlcNAc cleavage assay (fluorescent kinetic enzyme activity assay); assay type: biochemical; conditions: in the presence of 4mM activator 2 versus absence
Method: as §1, with “4MU.” for “4MU. The initial slopes were fitted to four-parameter sigmoidal dose response curves using SigmaPlot and the AC50 values extracted.”
Kinetic experiments using 4MU-GlcNAc were carried out in an analogous manner except that reactions were initiated by a 10 μl injection of BtGH84, to a final concentration of 50 nM, in a well containing the substrate at the desired concentration. Values quoted throughout are mean and standard deviation of three independent […]
Apparent KM and Vmax values were calculated from a Michalis-Menten curve fit to 8-10 point substrate titrations at a constant concentration of the activator. The covariation experiments used the same range of substrate concentrations across an activator concentration range of 50 µM to 2 mM. The data obtained from these experiments was fit to the nonessential activator equation: […]
Here, [S] is the concentration of the […], [A] the concentration of the activator, α modifies KM, β modifies Vmax and KA is the half-max concentration of the activator. […]

BtGH84 [3] = molecular target: T1, BtGH84; assay: Differential scanning fluorimetry (DSF); assay type: binding; conditions: melting temperature of BtGH84; PUGNAc 200 μM
Method: constant (Ka) were obtained from this fitting, and were used to calculate the Gibbs free energy (ΔG) and […]
Crystallisation and structure determination
BtGH84 crystals were grown using the sitting-drop vapour diffusion method. 1 μl of 12 mg/ml BtGH84 was mixed with 1 μl of reservoir solution (0.1 M imidazole pH 8.0, 10% PEG8000 (w/v), 3% trimethylamine N-oxide dehydrate, 12% ethylene glycol) and the crystals were allowed to grow at room temperature for at least 2 days. Crystal soaking was performed by gradually adding well solution containing 10 mM PUGNac and 50 mM activator 2, and 10% DMSO. Crystals were picked up with a nylon fibre loop (Hampton Research) and plunged into liquid nitrogen. Data were collected at Diamond beamline I04 using a Pilatus 6M-F detector (Dectris) at 100 K. An oscillation range of 0.1° degree was chosen and 180° were collected. Data were indexed, integrated and scaled using XDS.[5] Indexing was chosen to be consistent with previous collected data using Pointless[6] and a direct refinement of the model against the data was carried out. […] The quality of the final model was evaluated using the MolProbity-Server.[10] […]
DSF experiments were performed in 96-well polypropylene PCR plates (Agilent 401334) with a final well volume of 25 µl. […] Data was analysed with a combination of the Agilent MxPro software, MTSA,[11] and the DSF analysis spreadsheet in Excel.[12] […]

T1 sequence (Q89ZI2 22-737, change not shown): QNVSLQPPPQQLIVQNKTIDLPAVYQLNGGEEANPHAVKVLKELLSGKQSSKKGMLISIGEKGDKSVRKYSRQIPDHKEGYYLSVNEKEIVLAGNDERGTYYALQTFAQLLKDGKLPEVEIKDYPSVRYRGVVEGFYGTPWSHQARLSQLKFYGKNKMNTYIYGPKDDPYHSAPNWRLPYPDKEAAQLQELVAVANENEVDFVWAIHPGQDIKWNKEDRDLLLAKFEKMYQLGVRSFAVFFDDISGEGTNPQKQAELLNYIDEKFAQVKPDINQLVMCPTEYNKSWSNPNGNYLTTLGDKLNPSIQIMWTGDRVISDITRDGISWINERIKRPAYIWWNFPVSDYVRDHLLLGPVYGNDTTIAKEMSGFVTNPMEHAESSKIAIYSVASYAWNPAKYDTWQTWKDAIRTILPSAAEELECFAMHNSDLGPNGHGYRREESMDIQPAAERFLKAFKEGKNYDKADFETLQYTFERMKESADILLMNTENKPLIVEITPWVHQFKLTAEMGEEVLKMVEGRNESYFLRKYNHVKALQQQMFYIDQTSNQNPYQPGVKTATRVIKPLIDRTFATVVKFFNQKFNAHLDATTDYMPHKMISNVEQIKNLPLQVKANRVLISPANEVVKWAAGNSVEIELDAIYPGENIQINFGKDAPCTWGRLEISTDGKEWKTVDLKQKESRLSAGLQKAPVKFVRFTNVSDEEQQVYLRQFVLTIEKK

CC(=O)N[C@H]1/C(=N/OC(=O)Nc2ccccc2)O[C@H](CO)[C@@H](O)[C@@H]1O [PUGNAc, O-(2-Acetamido-2-deoxy-D-glucopyranosylidene) amino-Z-N-phenylcarbamate]
Kd (BtGH84 [1]; in the absence of 2): 3.9 ± 0.12 µM | Kd (BtGH84 [1]; in the presence of 2 (10 mM)): 1.1 ± 0.24 µM | IC50 (change) (BtGH84 [2]): reduced | increase of Tm (BtGH84 [3]): 3 °C
